Legend:
ERK1/2 = experiment: Phospho-ERK1/2 in SU-DHL-1 cells (Luminex multiplex); assay type: cell-based, human; settings: 24 hours, dose-dependent
Method: FIGS. 8A-8F. Effect of EP009 on ALCL cells is mediated through selective activation of ERK1/2 and JNK1/2 stress signaling pathways, and inhibition of p70 S6 kinase growth signaling pathways. SU-DHL-1 cells were treated with vehicle (PBS) or increasing amounts of EP009 (0-50 μM) for 24 hours. Cells were then lysed, clarified, and subjected to Luminex multiplex analysis to detect phosphorylated (A) ERK1/2, (B) JNK1/2, (C) p70 S6 kinase, (D) IκBα, (E) CREB, and (F) p38. Values represent mean fluorescence intensity (MFI) normalized to corresponding GAPDH MFI, while error bars represent the standard deviation (n=2). Representative data from two independent experiments are shown. Statistical significance was determined using Student's t-test. (*, p<0.05).
The MILLIPLEX MAP 8-plex Multi-Pathway Signaling Phosphoprotein kit (Millipore) was used to detect phosphorylated ERK1/2 (Thr185/Tyr187), STAT3 (Ser727), JNK1/2 (Thr183/Tyr185), p70 S6 kinase (Thr412), IκBα (Ser32), STAT5A/B (Tyr694/699), CREB (Ser133), and p38 (Thr180/Tyr182). The MILLIPLEX MAP 5-plex STAT Phosphoprotein kit (Millipore) was used to detect phosphorylated STAT1 (Tyr701), STAT2 (Tyr690), STAT3 (Tyr705), STAT5A/B (Tyr694/699), and STAT6 (Tyr641). The MILLIPLEX MAP Human Apoptosis 3-plex kit (Millipore) was used to detect cleaved PARP, cleaved Caspase 3, and total GAPDH for protein normalization.

CDK3 = CDK3 (Homo sapiens, UniProt Q00526); experiment: Kinase panel: CDK3; assay type: biochemical; settings: 10 μM EP009
Method: (§1) Achieving JAK3 selectivity remains a significant challenge in the development of new small molecules for the treatment of cancer and immune-derived diseases. As such, the inventors employed cell-based screening assays of small-molecule libraries based upon the chemical scaffold of the established JAK3 inhibitor NC1153 (Stepkowski et al., J Immunol. (2005), 175(7):4236-4246) EP009 (FIG. 2A) was selected as a lead compound due to improved intrinsic stability (>95% purity in various solvents at 37° C. for 24 hours; FIG. 3) and high-degree of JAK3 selectivity. To test JAK3 versus JAK2 specificity of EP009, the IL-2/JAK3-dependent Kit225, and IL-3/JAK2-dependent BaF/3 cell lines were used. Kit225 and BaF/3 cells growing in the presence of IL-2 or IL-3, respectively, were treated with ascending concentrations of EP009 for 12 hours and cellular JAK3 and JAK2 tyrosine phosphorylation levels detected by Western blot analysis (FIGS. 2B and 2C). Following densitometric analysis, EP009 was determined to dose-dependently reduce IL-2-mediated JAK3 tyrosine phosphorylation with a cellular 50% inhibitory concentration (IC50) between 10 and 20 μM (FIG. 2B). […] To globally evaluate specificity, the inhibitory activity of EP009 was measured against a panel of protein kinases distributed throughout the kinome using the scanEDGE profiling service (KINOMEscan). […]

AURKB = AURKB (Homo sapiens, UniProt Q96GD4); experiment: Kinase panel: AURKB; assay type: biochemical; settings: 10 μM EP009
Method: as §1

[1] = Stability in mouse plasma (LC-MS/MS); assay type: in vitro ADME; settings: indicated concentrations and incubation time points
Method: FIG. 11 illustrates the dose-dependent effect of (FIG. 11A) freshly prepared EP-009(P) and (FIG. 11B) EP-009(P) stored in aqueous conditions for 48 hr at room temperature on IL-2/JAK3-dependent Kit225 cell viability. FIG. 12 illustrates LC-MS/MS detection of EP-009 (5 ng/ml) in mouse plasma at a retention time of 1.91 min.

ACVR1B = ACVR1B (Homo sapiens, UniProt P36896); experiment: Kinase panel: ACVR1B; assay type: biochemical; settings: 10 μM EP009
Method: as §1

ABL1-phosphorylated = ABL1-phosphorylated (Homo sapiens, UniProt P00519); experiment: Kinase panel: ABL1-phosphorylated; assay type: biochemical; settings: 10 μM EP009
Method: as §1

PLK3 = PLK3 (Homo sapiens, UniProt Q9H4B4); experiment: Kinase panel: PLK3; assay type: biochemical; settings: 10 μM EP009
Method: as §1

CSNK1G2 = CSNK1G2 (Homo sapiens, UniProt P78368); experiment: Kinase panel: CSNK1G2; assay type: biochemical; settings: 10 μM EP009
Method: as §1

SU-DHL-1 cells = experiment: SU-DHL-1 cell viability (MTS); assay type: cell-based; settings: Homo sapiens; SU-DHL-1, 72 hours
Method: FIGS. 7A-7C. EP009 reduces ALCL cell viability through induction of caspase 3 mediated apoptosis. (A) SUP-M2, SU-DHL-1 or H2228 cells were cultured with increasing amounts of EP009 (0-10 μM) for 72 hours and cell viability measured with the MTS tetrazolium salt assay. Values represent mean absorbance (OD490-OD650 nm) normalized to vehicle (PBS) treated control cells, while error bars represent the standard deviation (n=3). (B) SU-DHL-1 cells were treated with vehicle (PBS) or increasing amounts of EP009 (0-50 μM) for 24 hours. Cells were then lysed, clarified, and subjected to Luminex multiplex analysis to detect activated caspase 3 and (C) cleaved PARP. Values represent MFI normalized to corresponding GAPDH MFI, while error bars represent the standard deviation (n=2). Representative data from three independent experiments are shown. Statistical significance was determined using Student's t-test. (*, p<0.05).
Cell viability was assessed with 3-(4,5-dimethylthiazol-2-yl)-5-(3-carboxymethoxyphenyl)-2-(4-sulfophenyl)-2H-tetrazolium salt (MTS) reagent (Promega) in triplicates according to the manufacturer's instructions. Three independent experiments were performed. The error bars represent standard deviation.

Sequence of PLK3 (Q9H4B4 whole entry): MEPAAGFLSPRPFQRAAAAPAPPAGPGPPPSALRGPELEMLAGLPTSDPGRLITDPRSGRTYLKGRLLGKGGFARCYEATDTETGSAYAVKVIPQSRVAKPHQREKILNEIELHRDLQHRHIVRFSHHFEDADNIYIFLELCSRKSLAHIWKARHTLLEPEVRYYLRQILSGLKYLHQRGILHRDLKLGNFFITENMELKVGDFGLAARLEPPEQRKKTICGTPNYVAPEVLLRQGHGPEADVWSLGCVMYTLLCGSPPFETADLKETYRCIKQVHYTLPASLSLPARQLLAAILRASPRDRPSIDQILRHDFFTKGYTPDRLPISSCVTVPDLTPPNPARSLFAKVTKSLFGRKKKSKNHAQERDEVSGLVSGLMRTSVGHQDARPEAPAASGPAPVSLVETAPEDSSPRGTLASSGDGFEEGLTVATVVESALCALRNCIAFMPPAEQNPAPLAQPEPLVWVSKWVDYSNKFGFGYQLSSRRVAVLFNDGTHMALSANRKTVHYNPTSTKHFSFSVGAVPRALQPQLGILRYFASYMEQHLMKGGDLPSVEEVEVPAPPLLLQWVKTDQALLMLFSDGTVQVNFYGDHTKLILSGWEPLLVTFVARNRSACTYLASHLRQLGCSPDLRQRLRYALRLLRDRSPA
Sequence of ACVR1B (P36896 24-505): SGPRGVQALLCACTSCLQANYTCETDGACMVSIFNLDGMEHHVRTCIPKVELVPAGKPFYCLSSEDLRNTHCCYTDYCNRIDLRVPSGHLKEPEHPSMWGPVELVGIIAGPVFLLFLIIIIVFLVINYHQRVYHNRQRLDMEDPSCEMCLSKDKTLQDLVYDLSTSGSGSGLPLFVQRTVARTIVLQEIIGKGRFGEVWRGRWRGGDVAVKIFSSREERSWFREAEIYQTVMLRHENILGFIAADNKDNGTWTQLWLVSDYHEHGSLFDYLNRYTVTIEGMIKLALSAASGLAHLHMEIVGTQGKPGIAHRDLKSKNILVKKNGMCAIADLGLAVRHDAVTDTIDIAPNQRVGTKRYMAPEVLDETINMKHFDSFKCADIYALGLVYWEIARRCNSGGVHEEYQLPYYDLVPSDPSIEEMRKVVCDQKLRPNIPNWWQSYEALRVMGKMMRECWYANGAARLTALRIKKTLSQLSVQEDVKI
Sequence of CDK3 (Q00526 whole entry): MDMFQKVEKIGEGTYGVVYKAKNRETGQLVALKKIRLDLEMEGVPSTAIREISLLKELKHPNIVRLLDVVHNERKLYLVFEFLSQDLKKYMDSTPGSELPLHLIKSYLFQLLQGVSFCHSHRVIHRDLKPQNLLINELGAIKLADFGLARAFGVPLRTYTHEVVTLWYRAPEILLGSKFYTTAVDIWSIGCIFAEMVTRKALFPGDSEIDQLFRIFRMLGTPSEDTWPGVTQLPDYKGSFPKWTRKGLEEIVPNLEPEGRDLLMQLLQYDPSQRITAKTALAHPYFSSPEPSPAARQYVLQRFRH
Sequence of ABL1-phosphorylated (P00519 whole entry): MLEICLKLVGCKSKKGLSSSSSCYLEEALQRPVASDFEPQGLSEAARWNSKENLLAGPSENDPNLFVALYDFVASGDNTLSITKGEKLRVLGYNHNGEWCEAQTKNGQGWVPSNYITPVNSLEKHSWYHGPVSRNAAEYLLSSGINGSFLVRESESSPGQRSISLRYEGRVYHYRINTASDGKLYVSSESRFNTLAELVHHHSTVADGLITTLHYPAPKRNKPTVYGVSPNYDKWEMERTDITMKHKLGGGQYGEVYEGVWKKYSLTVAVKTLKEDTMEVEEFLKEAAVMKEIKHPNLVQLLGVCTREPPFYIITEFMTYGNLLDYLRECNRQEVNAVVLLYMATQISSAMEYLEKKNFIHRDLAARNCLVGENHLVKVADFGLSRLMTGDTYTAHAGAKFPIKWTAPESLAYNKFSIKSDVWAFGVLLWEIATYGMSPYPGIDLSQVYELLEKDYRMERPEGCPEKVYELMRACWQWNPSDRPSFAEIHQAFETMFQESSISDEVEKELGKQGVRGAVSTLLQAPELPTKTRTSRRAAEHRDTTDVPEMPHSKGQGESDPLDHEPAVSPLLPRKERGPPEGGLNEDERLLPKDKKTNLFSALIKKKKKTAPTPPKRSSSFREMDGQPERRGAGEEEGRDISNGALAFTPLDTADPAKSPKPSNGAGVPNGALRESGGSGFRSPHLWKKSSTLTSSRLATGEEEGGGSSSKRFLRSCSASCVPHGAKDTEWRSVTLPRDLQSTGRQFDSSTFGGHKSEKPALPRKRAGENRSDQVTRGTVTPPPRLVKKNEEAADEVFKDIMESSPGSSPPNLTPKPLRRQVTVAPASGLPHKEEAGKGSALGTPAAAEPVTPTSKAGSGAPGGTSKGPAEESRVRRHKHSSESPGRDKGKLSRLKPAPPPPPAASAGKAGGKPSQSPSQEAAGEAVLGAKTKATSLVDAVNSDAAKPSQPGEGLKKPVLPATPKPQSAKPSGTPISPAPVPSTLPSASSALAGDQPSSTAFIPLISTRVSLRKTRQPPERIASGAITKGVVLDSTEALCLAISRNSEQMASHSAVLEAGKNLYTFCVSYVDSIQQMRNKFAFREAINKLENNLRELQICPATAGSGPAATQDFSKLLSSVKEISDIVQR
Sequence of AURKB (Q96GD4 whole entry): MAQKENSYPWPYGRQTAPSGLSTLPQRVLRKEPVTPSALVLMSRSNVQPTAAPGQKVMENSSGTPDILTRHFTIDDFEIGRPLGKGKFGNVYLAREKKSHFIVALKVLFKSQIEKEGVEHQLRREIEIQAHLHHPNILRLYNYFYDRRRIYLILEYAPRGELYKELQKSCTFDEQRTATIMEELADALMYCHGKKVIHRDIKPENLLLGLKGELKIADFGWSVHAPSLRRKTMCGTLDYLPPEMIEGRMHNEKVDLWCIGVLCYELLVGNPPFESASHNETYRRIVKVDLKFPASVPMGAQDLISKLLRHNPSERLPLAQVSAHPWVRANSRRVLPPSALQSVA
Sequence of CSNK1G2 (P78368 whole entry): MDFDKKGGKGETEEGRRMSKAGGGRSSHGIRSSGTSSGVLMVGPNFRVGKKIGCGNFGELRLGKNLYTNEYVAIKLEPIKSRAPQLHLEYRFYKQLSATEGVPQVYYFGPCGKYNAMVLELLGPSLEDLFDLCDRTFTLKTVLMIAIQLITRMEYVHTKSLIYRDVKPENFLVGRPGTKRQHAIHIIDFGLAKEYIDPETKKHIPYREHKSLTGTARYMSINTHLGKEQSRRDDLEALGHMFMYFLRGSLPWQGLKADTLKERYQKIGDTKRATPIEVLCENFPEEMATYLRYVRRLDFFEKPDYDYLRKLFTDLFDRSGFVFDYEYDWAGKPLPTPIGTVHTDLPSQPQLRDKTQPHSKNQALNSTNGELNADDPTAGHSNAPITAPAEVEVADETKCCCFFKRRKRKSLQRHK

For `C=C1CCCCCCCCCC(CO)C1=O` (stereo not drawn) [EP009, 2-(Hydroxymethyl)-12-methylenecyclododecanone], the ERK1/2 phosphorylation (ERK1/2) was “induced phosphorylation and activation”, the “Kinase Activity (% of Control)” value (CDK3) was 100 % of Control and the “Kinase Activity (% of Control)” value (AURKB) was 99 % of Control. The “stability in mouse plasma” value [1] was “stable and readily detected”, the “Kinase Activity (% of Control)” value (ACVR1B) was 96 % of Control and the “Kinase Activity (% of Control)” value (ABL1-phosphorylated) was 100 % of Control. The “Kinase Activity (% of Control)” value (PLK3) was 92 % of Control, the “Kinase Activity (% of Control)” value (CSNK1G2) was 100 % of Control and the IC50 (SU-DHL-1 cells) was 5 µM.

From patent US9371265B2, “Compositions and methods related to inhibitors of JAK kinase” (EP PHARMA, INC., priority 2012, dated 2016)
